# Experimental data taken from article PMC3553236 (Biochemical pharmacology, 2012).
# Where two headings read alike, the source gives them in different places.
# Tests used:
# pcDNA-HEK293 cells = assay: Cytotoxicity / MDR reversal assay, pcDNA-HEK293; format: cell-based; details: Homo sapiens
# [1] = Cytotoxicity / MDR reversal assay, MDR19-HEK293; format: cell-based, human; details: human, MDR19-HEK293 cells (ABCB1-transfected HEK293)
# [2] = test system: MDR19-HEK293 (ABCB1) cells; assay: Cytotoxicity / MDR reversal assay, MDR19-HEK293; format: cell-based, human; details: for R.R of doxorubicin in the presence of the treatment: MDR19-HEK293 / pcDNA-HEK293
# [3] = test system: MRP1-HEK293 (ABCC1) cells; details: for R.R of etoposide in the presence of the treatment: MRP1-HEK293 / pcDNA-HEK293
# in vitro [4] = details: human, MRP1-HEK293 cells (ABCC1-transfected HEK293)
# A375-G2 cells = assay: cells; format: cell-based, human; details: for IC50: Homo sapiens, A-375
# [5] = test system: R482-HEK293 (ABCG2) cells; assay: in vitro; format: cell-based, human; details: for R.R (relative resistance): IC50 R482-HEK293 / IC50 pcDNA-HEK293, drug alone
# ABCG2 [6] = target: T1, ABCG2 (Homo sapiens, UniProt Q9UNQ0)
# T1 sequence (Q9UNQ0 1-655): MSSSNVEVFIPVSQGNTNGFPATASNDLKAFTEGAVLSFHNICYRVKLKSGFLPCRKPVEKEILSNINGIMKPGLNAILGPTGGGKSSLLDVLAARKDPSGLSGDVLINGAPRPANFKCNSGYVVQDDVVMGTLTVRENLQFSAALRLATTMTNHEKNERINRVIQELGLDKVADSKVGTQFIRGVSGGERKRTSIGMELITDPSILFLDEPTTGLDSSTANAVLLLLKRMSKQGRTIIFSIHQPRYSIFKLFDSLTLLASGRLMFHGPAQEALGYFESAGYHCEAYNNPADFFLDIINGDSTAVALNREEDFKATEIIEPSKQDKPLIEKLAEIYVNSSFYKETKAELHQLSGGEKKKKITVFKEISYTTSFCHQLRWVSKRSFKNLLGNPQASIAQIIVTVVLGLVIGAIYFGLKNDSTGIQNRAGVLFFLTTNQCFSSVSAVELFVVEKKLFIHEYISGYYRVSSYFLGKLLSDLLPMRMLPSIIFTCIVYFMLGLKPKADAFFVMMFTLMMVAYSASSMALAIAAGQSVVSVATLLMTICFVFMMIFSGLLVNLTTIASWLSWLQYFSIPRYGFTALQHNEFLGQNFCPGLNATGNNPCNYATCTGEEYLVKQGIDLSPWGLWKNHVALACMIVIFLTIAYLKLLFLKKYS
# [7] = test system: BRAF(V600E) mutant A375 melanoma cells; assay: cells; format: cell-based, human
# in vitro [8] = format: cell-based, human; details: human, R482-HEK293 cells (ABCG2-transfected HEK293)
# KB-3-1 cells = assay: Cytotoxicity assay; format: cell-based; details: Homo sapiens
# CORL-23/P cells = assay: Cytotoxicity assay; format: cell-based; details: Homo sapiens, COR-L23
# MCF7 cells = assay: Cytotoxicity assay; format: cell-based; details: Homo sapiens
# S1 cells = assay: Cytotoxicity assay; format: cell-based; details: Homo sapiens
# Colo-205 cells = assay: Cytotoxicity assay; format: cell-based; details: Homo sapiens
# [9] = test system: drug sensitive parental cells; assay: Fluorescent probe accumulation in drug sensitive parental cells; format: cell-based, human; details: up to 50 µM
# ABCB1 [10] = target: T2, ABCB1 (Homo sapiens, UniProt P08183); assay: Vi-sensitive ATPase activity of ABCB1; format: biochemical
# ABCG2 [11] = target: T1, ABCG2; assay: Vi-sensitive ATPase activity of ABCG2; format: biochemical
# ABCC1 = format: cell-based, human; details: CORL-23/R; 0.3 µM-10 µM, 72 h
# BRAF kinase = BRAF kinase activity in A375 and A375-G2 cells; format: cell-based, human; details: 0.2 – 5.0 µM, 4 h
# ABCG2 [12] = details: 2 µM; ABCG2-overexpressing HEK293, MCF7-FLV1000, MCF7-AdVp3000 and S1-M1-80
# ABCB1 [13] = details: KBV-1; 0.3 µM-10 µM, 72 h
# KBV-1 cells = assay: cells; details: Homo sapiens, KB-V1
# ABCG2 [14] = details: MCF7-FLV1000; 0.3 µM-10 µM, 72 h
# CORL-23/R cells = assay: cells; details: Homo sapiens, COR-L23/R
# MCF7-FLV1000 cells = assay: cells; details: Homo sapiens, MCF-7 FLV1000
# MCF7-AdVp3000 cells = assay: cells; details: Homo sapiens
# S1-M1-80 cells = assay: cells; details: Homo sapiens
# ABCB1 [15] = target: T2, ABCB1; assay: cell-based
# ABCG2 [16] = target: T1, ABCG2; assay: biochemical
# ABCB1 [17] = target: T2, ABCB1; assay: ABCB1-mediated calcein-AM efflux, flow cytometry; details: 2 µM, MDR19-HEK293 and KBV-1
# ABCG2 (R482G) = ABCG2 (R482G) (Homo sapiens, UniProt Q9UNQ0, R482G); assay: ABCG2-mediated mitoxantrone efflux, flow cytometry, S1-M1-80
# ABCG2 (wild type R482) = ABCG2 (wild type R482) (Homo sapiens, UniProt Q9UNQ0); assay: ABCG2-mediated mitoxantrone efflux, flow cytometry, MCF7-FLV1000
# ABCG2 (R482T) = ABCG2 (R482T) (Homo sapiens, UniProt Q9UNQ0, R482T); assay: ABCG2-mediated mitoxantrone efflux, flow cytometry, MCF7-AdVp3000
# ABCB1 [18] = target: T2, ABCB1; assay: [125I]IAAP photoaffinity labeling of ABCB1
# [19] = doxorubicin + treatment at 1 µM
# T2 sequence (P08183 whole entry): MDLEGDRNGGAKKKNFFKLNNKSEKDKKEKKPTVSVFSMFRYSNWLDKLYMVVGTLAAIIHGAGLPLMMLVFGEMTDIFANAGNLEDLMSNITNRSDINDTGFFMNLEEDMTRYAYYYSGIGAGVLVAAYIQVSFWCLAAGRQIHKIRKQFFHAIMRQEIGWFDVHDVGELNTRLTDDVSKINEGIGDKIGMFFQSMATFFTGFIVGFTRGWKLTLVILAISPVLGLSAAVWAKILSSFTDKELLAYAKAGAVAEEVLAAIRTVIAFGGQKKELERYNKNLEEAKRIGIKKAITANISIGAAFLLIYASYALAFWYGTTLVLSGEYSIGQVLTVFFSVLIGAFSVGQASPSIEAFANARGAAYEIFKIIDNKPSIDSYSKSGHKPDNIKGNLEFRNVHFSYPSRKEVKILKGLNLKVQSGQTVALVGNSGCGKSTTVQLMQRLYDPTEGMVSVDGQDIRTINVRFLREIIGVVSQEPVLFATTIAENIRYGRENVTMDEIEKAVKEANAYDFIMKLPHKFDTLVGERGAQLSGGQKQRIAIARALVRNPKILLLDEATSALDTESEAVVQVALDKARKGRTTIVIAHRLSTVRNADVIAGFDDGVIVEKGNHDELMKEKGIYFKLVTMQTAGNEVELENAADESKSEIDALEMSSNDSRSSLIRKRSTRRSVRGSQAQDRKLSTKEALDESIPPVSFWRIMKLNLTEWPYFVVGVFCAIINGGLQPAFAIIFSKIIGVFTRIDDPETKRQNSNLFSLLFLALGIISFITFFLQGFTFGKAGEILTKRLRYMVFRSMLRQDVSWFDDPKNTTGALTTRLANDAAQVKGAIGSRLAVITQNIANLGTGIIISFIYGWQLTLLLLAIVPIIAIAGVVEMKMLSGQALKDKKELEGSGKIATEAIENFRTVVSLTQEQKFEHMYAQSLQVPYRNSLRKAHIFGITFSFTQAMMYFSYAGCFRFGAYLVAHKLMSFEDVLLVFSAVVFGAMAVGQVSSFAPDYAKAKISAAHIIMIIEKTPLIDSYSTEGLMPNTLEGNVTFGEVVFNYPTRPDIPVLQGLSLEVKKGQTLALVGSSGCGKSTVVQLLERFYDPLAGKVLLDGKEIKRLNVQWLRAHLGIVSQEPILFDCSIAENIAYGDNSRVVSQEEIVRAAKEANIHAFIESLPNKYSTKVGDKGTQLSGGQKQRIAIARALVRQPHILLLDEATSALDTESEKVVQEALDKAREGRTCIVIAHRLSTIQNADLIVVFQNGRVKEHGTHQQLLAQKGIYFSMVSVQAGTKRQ
# ABCG2 (R482G), sequence (Q9UNQ0 whole entry R482G): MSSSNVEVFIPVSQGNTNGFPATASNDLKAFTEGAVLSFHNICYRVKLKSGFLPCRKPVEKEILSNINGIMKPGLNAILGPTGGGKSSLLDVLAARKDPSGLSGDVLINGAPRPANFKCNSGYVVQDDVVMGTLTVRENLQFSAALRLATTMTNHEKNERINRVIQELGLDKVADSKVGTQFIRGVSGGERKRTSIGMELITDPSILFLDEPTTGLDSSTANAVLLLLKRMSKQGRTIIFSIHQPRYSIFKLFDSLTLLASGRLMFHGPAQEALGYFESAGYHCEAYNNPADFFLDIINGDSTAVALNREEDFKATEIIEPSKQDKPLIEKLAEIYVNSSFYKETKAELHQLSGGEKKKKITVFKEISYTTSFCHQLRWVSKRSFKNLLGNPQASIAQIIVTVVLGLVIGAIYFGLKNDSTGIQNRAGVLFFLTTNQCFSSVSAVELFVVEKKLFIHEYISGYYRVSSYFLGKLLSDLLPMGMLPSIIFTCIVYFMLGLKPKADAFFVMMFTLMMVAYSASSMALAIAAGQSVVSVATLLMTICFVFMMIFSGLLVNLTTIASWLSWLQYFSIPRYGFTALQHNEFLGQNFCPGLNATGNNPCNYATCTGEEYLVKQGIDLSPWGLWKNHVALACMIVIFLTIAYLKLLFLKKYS
# ABCG2 (R482T), sequence (Q9UNQ0 whole entry R482T): as the sequence (Q9UNQ0 whole entry R482G) above, with G482T counted along it
compound,measurement,setting,value
COc1cccc2c1C(=O)c1c(O)c3c(c(O)c1C2=O)C[C@@](O)(C(=O)CO)C[C@@H]3O[C@H]1C[C@H](N)[C@H](O)[C@H](C)O1 [Doxorubicin],IC50,pcDNA-HEK293 cells,18.5 ± 8.31 nM
same,IC50,[1],594 ± 78 nM
same,R.R (relative resistance),"[2]; IC50 MDR19-HEK293 / IC50 pcDNA-HEK293, drug alone",32
COc1cc([C@@H]2c3cc4c(cc3[C@@H](O[C@@H]3O[C@@H]5CO[C@@H](C)O[C@H]5[C@H](O)[C@H]3O)[C@H]3COC(=O)[C@H]23)OCO4)cc(OC)c1O [Etoposide],IC50,pcDNA-HEK293 cells,217 ± 72 nM
same,R.R (relative resistance),"[3]; IC50 MRP1-HEK293 / IC50 pcDNA-HEK293, drug alone",161
same,IC50,in vitro [4],34900 ± 4030 nM
"COc1ccc2c3c([nH]c2c1)[C@H](C=C(C)C)N1C(=O)[C@@H]2CCCN2C(=O)[C@@H]1C3 [FTC, Fumitremorgin C]",R.R of mitoxantrone in the presence of the treatment,"A375-G2 cells; A375-G2 / A375, mitoxantrone + treatment at 3 µM",2
same,R.R of vemurafenib in the presence of the treatment,"A375-G2 cells; A375-G2 / A375, vemurafenib + treatment at 3 µM",1
same,reversal of ABCG2-mediated resistance to vemurafenib,"A375-G2 cells; A375-G2, FTC 3 µM (Table 2)",reversed completely
same,R.R of mitoxantrone in the presence of the treatment,"[5]; R482-HEK293 / pcDNA-HEK293, mitoxantrone + treatment at 3 µM",5
same,R.R of topotecan in the presence of the treatment,"[5]; R482-HEK293 / pcDNA-HEK293, topotecan + treatment at 3 µM",3
same,ABCG2-mediated efflux of pheophorbide A,"ABCG2 [6]; A375-G2, 5 µM",inhibited completely
O=C1c2c(O)ccc(O)c2C(=O)c2c(NCCNCCO)ccc(NCCNCCO)c21 [Mitoxantrone],IC50,"[7]; Homo sapiens, A-375, A375, drug alone",2.35 ± 0.64 nM
same,"fold more resistant, A375-G2 than parental A375 cells",A375-G2 cells,over 6 fold
same,IC50,A375-G2 cells,15 ± 3.48 nM
same,R.R (relative resistance),"A375-G2 cells; IC50 A375-G2 / IC50 A375, drug alone",6
same,IC50,pcDNA-HEK293 cells,5.3 ± 1.24 nM
same,IC50,in vitro [8],178 ± 19 nM
same,R.R (relative resistance),[5],34
COc1cc2c(cc1OC)CN(CCc1ccc(NC(=O)c3cc(OC)c(OC)cc3NC(=O)c3cnc4ccccc4c3)cc1)CC2 [Tariquidar],R.R of doxorubicin in the presence of the treatment,[2]; [19],3
CC[C@@]1(O)C(=O)OCc2c1cc1n(c2=O)Cc2cc3c(CN(C)C)c(O)ccc3nc2-1 [Topotecan],IC50,pcDNA-HEK293 cells,18.3 ± 4.48 nM
same,IC50,in vitro [8],510 ± 94.5 nM
same,R.R (relative resistance),[5],28
CCCS(=O)(=O)Nc1ccc(F)c(C(=O)c2c[nH]c3ncc(-c4ccc(Cl)cc4)cc23)c1F [Vemurafenib],IC50,KB-3-1 cells,14800 ± 4190 nM
same,IC50,CORL-23/P cells,8520 ± 1390 nM
same,IC50,MCF7 cells,53600 ± 9420 nM
same,IC50,S1 cells,13600 ± 3840 nM
same,IC50,Colo-205 cells,118 ± 11 nM
same,R.R of mitoxantrone in the presence of the treatment,"A375-G2 cells; A375-G2 / A375, mitoxantrone + treatment at 0.02 µM",2
same,IC50,A375-G2 cells,215 ± 32.8 nM
same,IC50,pcDNA-HEK293 cells,28100 ± 6930 nM
same,re-sensitization of R482-HEK293 cells to mitoxantrone,[5],~ 6 fold
same,re-sensitization of R482-HEK293 cells to topotecan,[5],~ 9 fold
same,R.R of doxorubicin in the presence of the treatment,[2]; [19],23
same,R.R of doxorubicin in the presence of the treatment,[2]; doxorubicin + treatment at 2 µM,23
same,R.R of doxorubicin in the presence of the treatment,[2]; doxorubicin + treatment at 5 µM,22
same,effect on accumulation of fluorescent probes in drug sensitive parental cells,[9],no effect
same,inhibition of ATPase activity,ABCB1 [10]; higher concentrations,~ 50%
same,stimulation of ATPase activity above basal level,ABCB1 [10]; lower concentrations,~ 40%
same,inhibition of ATPase activity,ABCG2 [11]; higher concentrations,~ 90%
same,stimulation of ATPase activity above basal level,ABCG2 [11]; lower concentrations,~ 95%
same,effect on ABCC1 protein expression level,ABCC1,no significant effect
same,"inhibitory effect on p-MEK1/2, A375 versus A375-G2",BRAF kinase,comparable
same,levels of total MEK1/2 and ERK1/2,BRAF kinase; A375 and A375-G2,remained unchanged
same,levels of p-MEK1/2 and p-ERK1/2,"BRAF kinase; A375 and A375-G2, concentration-dependent",reduced
same,R.R of etoposide in the presence of the treatment,[3]; etoposide + treatment at 1 µM,159
same,R.R of etoposide in the presence of the treatment,[3]; etoposide + treatment at 2 µM,165
same,R.R of etoposide in the presence of the treatment,[3]; etoposide + treatment at 5 µM,116
same,ABCG2-mediated efflux of PhA,ABCG2 [12],inhibited significantly
same,effect on ABCB1 protein expression level,ABCB1 [13],no significant effect
same,IC50,KBV-1 cells,16900 ± 4970 nM
same,effect on ABCG2 protein expression level,ABCG2 [14],no significant effect
same,ABCG2-mediated efflux of pheophorbide A,ABCG2 [6],inhibited completely
same,IC50,CORL-23/R cells,8540 ± 2250 nM
same,IC50,MCF7-FLV1000 cells,58700 ± 15800 nM
same,IC50,MCF7-AdVp3000 cells,70000 ± 27400 nM
same,IC50,S1-M1-80 cells,14700 ± 3020 nM
same,IC50,in vitro [4],21800 ± 2560 nM
same,IC50,ABCB1 [15],> 50000 nM
same,IC50,ABCG2 [16],570 nM
same,effect on drug efflux mediated by ABCB1,ABCB1 [17],no significant effect
same,IC50,ABCG2 (R482G),2600 nM
same,IC50,ABCG2 (wild type R482),1240 nM
same,IC50,ABCG2 (R482T),4910 nM
same,IC50,ABCB1 [18],4510 nM
